“And” between values parts separate entries of the source, which are not always exact repeats. Equal values may be shown once.
Assays:
Type in all cases: cell-based
fibulin-5 = experiment: Immunofluorescence of fibulin-5 protein expression in human dermal fibroblasts; conditions: 0.5 mg/mL, 48 hours, HDFa
Method: In this experiment the number of times that the expression of the proteins fibulin-5 and LOXL1 in human dermal fibroblasts is increased with regard to the basal levels in untreated cells (negative control) when treating the cells with 0.5 mg/ml of the product Ac-L-Asp-L-Val-L-Lys-L-Tyr-OH and it is compared with the effect of Interleukin-1β (IL-1β) at 20 ng/ml and TGF-β at 5 ng/ml (positive controls), which increase an average of 1.5 times and 2 times, respectively, the expression of these proteins, in the same conditions.
Adult human dermal fibroblasts were seeded (HDFa) (2.5×10^3 cells/well) in a 96-well transparent plate, treated with polylysine, and were incubated in complete medium 106 for 72 hours at 37° C. in an atmosphere with 5% CO2. After the incubation, the cells were treated with the different compounds in complete medium 106 for 48 hours at 37° C. in an atmosphere with 5% CO2. As positive controls of increase of the expression of the proteins fibulin-5 and LOXL1, 5 ng/ml of TGF-β and 20 ng/ml of IL-1β were used and as a negative control untreated cells were used, just with complete medium 106. The incubations and the treatments were carried out in quadruplicate for each condition. After the treatment, the levels of expression of both proteins were quantified relatively by using specific fluorescent antibodies, photographic recording by microscopy and subsequent quantification of the fluorescent signal using image processing software, the number of total cells by fluorescent staining of the nuclei (DAPI) and subsequent quantification in the same images. For the determination of the expression of the proteins fibulin-5 and LOXL1 the cells were washed with PBS 48 hours after the treatments and were fixed with paraformaldehyde. Next, duplicates of each treatment were used to mark separately the fibulin-5 and LOXL1 proteins. For each of the proteins a specific primary monoclonal antibody was used (Abcam). After the primary incubation, the cells were washed with PBS and the secondary marking was carried out with specific fluorescent polyclonal antibodies for each primary antibody. For fibulin-5 an Alexa Fluor® 594 (red) secondary antibody was used and for LOXL1 an Alexa Fluor® 488 (green) secondary antibody was used. 16 hours later all the samples were stained with DAPI (4′,6-Diamidino-2-Phenylindole), fluorescent marker for the staining of nuclei, and the photographic recording was carried out by fluorescence microscopy in a Leica microscope. 2-4 images were taken per condition and per protein and the fluorescent signals were quantified (IOD) corresponding to each protein and the nuclei by means of image analysis software. The fibulin-5 and LOXL1 signals were normalized according to the number of total nuclei for each image. 3 independent assays were carried out.

[1] = system: human dermal fibroblasts (HDFa); experiment: Gene expression profile of human dermal fibroblasts (microarray, GSEA); conditions: 0.05 mg/ml, 24 hours
Method: Adult human dermal fibroblasts (HDFa) were seeded (12.5×10^4 cells/vial T25 cm^2), and were incubated in complete medium 106 for 7 days at 37° C. in an atmosphere with 5% CO2. After the incubation, the cells were treated for 24 hours at 37° C. in an atmosphere with 5% CO2 with 0.05 mg/ml of the compound Ac-L-Asp-L-Val-L-Lys-L-Tyr-OH in complete medium 106 or in complete medium 106 as a negative control. The incubations and the treatments were carried out in duplicate for each condition.
After the treatments, RNA was extracted and purified, the quality and quantity was verified and the marking was carried out as was the hybridization of the samples in a human gene expression microarray (ASurePrint G3, Agilent). […] Next an evaluation of the genes by means of GSEA was carried out to encompass these genes according to their function/biological route. 24 hours after the treatments, the cells were lysed and the RNA was extracted and purified from each replica and each condition by means of the RNeasyPlus Mini kit by Qiagen. The lysed cells were briefly homogenized and the RNases were inactivated. The samples were passed through special RNA binding columns and after several microcentrifugation washes to eliminate contaminants and impurities, the purified RNA was eluted with 50 μl of ultrapure water. The purity, integrity and concentration of the RNA obtained were evaluated by means of spectrophotometry (Nanodrop) and with a bioanalyzer (Agilent Bioanalyzer).
The normalized values obtained with the treatment were compared with the normalized values obtained with the negative control to obtain genes with differential expression. […] The values obtained are also evaluated by means of GSEA (Gene Set Analysis Enrichment) to group together the genes with differential expression in terms of Gene Ontology and Biological Routes and the sets of genes with an expected proportion of incorrectly rejected null hypotheses were selected as significant (FDR) <25%. The results obtained are shown below in three different tables in which different families of genes are grouped together (collagen genes, genes involved in collagen synthesis and genes involved in cell adhesion).

elastin = experiment: Elastin synthesis in human dermal fibroblasts (Fastin Elastin Assay); conditions: 0.01 μg/ml, 48 hours, vs negative control
Method: Stimulation of elastin synthesis induced by Ac-L-Asp-L-Val-L-Lys-L-Tyr-OH was evaluated by means of a quantitative method of staining, Fastin Elastin Assay (Tebu-Bio). Human dermal fibroblasts were trypsinized and seeded at a density of 7×10^4 cells/well in 6-well plates. After 72 hours of incubation at 37° C., 5% CO2, with a humidified atmosphere, a new medium was added with 0.01 μg/mL Ac-L-Asp-L-Val-L-Lys-L-Tyr-OH. Untreated cells were used as negative controls and cells treated with TGF-1β (Peprotech) were used as positive controls. The cells were incubated for an additional 48 hours at 37° C., 5% CO2, with humidified atmosphere. Subsequently, the elastin was solubilized and extracted, for which the cells were washed twice with PBS (Sigma) and a solution was added to uncouple the cells (Cell Dissociation Solution, Sigma). The suspension of cells was transferred to centrifuge tubes, 1 M Oxalic Acid was added provided by the kit and they were incubated at 100° C. for 1 hour. Once the elastin became soluble, a calibration curve was prepared with the elastin provided with the kit. From that point, the samples and dilutions of the calibration curve were processed following the kit instructions to isolate and stain the elastin. Lastly, the dye was extracted and the absorbency reading was carried out at a wave length of 540 nm in a TECAN GENios spectrophotometric reader.

Substance: Ac-L-Asp-L-Val-L-Lys-L-Tyr-OH (Ac-DVKY-OH)
- Increase in the expression of the protein fibulin-5 with regard to the negative control (fibulin-5): 134% and 133.90%
- % Expression induction ([1]; ACTN1 (Actinin, alpha 1)): 27.4%
- % Expression induction ([1]; CAPNS1 (Calpain, small subunit 1)): 22.1%
- % Expression induction ([1]; CAPNS2 (Calpain, small subunit 2)): 17.9%
- % Expression induction ([1]; COL1A2 (Collagen, type-I, alpha 2)): 31.1%
- % Expression induction ([1]; COL4A1 (Collagen, type-IV, alpha 1)): 18.9%
- % Expression induction ([1]; COL4A2 (Collagen, type-IV, alpha 2)): 8.3%
- % Expression induction ([1]; COL6A2 (Collagen, type-VI, alpha 2)): 16.0%
- % Expression induction ([1]; COL6A3 (Collagen, type-VI, alpha 3)): 18.6%
- % Expression induction ([1]; COL11A1 (Collagen, type-XI, alpha 1)): 7.2%
- % Expression induction ([1]; COL14A1 (Collagen, type-XIV, alpha 1)): 36.1%
- % Expression induction ([1]; COL22A1 (Collagen, type-XXII, alpha 1)): 7.7%
- % Expression induction ([1]; COL27A1 (Collagen, type-XXVII, alpha 1)): 14.2%
- % Expression induction ([1]; GSN (Gelsolin)): 30.1%
- % Expression induction ([1]; ITGB1 (Integrin, beta 1)): 33.0%
- % Expression induction ([1]; PCOLCE (Procollagen C-endopeptidase enhancer)): 22.4%
- % Expression induction ([1]; PFN1 (Profilin 1)): 36.8%
- % Expression induction ([1]; PLOD3 (Procollagen-lysine, 2-oxoglutarate 5-dioxygenase 3)): 20.7%
- % Expression induction ([1]; ROCK1 (Rho-associated, coiled-coil containing protein kinase 1)): 22.7%
- % Expression induction ([1]; SERPINH1 (heat shock protein 47)): 25.3%
- % Expression induction ([1]; TLN1 (Talin 1)): 27.5%
- % Expression induction ([1]; VCL (Vinculin)): 4.2%
- % Expression induction ([1]; ZYX (Zyxin)): 35.7%
- INCREASE IN ELASTIN SYNTHESIS (elastin): 21.7%

From patent US9458194B2, “Compounds useful in the treatment and/or care of the skin and their cosmetic or pharmaceutical compositions” (Lubrizol Advanced Materials, Inc., priority 2013, dated 2016)
